Assay results published in PMC5862592, “CDK8/19 inhibition induces premature G1/S transition and ATR-dependent cell death in prostate cancer cells” (Oncotarget, 2018).
Like-named read-outs stand apart in the source and are kept apart here.

Columns and labels:
MKNK1 = MKNK1 (Homo sapiens, UniProt Q9BUB5); experiment: biochemical; set-up: KINOMEscan active site-directed competition binding assay (DiscoveRx), 456 kinases, per cent of control at 300 nM; details: read-out: Percent of Control (%)
Summary of the method: (§1)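 At 300 nmol/L, compounds were assessed for kinase binding in an active site-directed competition format covering 456 kinases.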

[1] = target: T1, ABL1(Q252H)-phosphorylated (Homo sapiens, UniProt P00519, Q252H); experiment: biochemical; set-up: KINOMEscan active site-directed competition binding assay (DiscoveRx), 456 kinases, per cent of control at 300 nM; details: read-out: Percent of Control (%)
T1 construct: phosphorylated
Summary of the method: as §1

YANK3 = target: T2, YANK3 (Homo sapiens, UniProt Q86UX6); experiment: biochemical; set-up: KINOMEscan active site-directed competition binding assay (DiscoveRx), 456 kinases, per cent of control at 300 nM; details: read-out: Percent of Control (%)
T2 construct: gene STK32C
Summary of the method: as §1

ANKK1 = ANKK1 (Homo sapiens, UniProt Q8NFD2); experiment: biochemical; set-up: KINOMEscan active site-directed competition binding assay (DiscoveRx), 456 kinases, per cent of control at 300 nM; details: read-out: Percent of Control (%)
Summary of the method: as §1

PAK3 = PAK3 (Homo sapiens, UniProt O75914); experiment: biochemical; set-up: KINOMEscan active site-directed competition binding assay (DiscoveRx), 456 kinases, per cent of control at 300 nM; details: read-out: Percent of Control (%)
Summary of the method: as §1

[2] = target: T3, JAK1(JH1domain-catalytic) (Homo sapiens, UniProt P23458); experiment: biochemical; set-up: KINOMEscan active site-directed competition binding assay (DiscoveRx), 456 kinases, per cent of control at 300 nM; details: read-out: Percent of Control (%)
T3 construct: JH1domain-catalytic
Summary of the method: as §1

PAK7 = target: T4, PAK7 (Homo sapiens, UniProt Q9P286); experiment: biochemical; set-up: KINOMEscan active site-directed competition binding assay (DiscoveRx), 456 kinases, per cent of control at 300 nM; details: read-out: Percent of Control (%)
T4 construct: gene PAK5
T4 sequence (Q9P286 whole entry): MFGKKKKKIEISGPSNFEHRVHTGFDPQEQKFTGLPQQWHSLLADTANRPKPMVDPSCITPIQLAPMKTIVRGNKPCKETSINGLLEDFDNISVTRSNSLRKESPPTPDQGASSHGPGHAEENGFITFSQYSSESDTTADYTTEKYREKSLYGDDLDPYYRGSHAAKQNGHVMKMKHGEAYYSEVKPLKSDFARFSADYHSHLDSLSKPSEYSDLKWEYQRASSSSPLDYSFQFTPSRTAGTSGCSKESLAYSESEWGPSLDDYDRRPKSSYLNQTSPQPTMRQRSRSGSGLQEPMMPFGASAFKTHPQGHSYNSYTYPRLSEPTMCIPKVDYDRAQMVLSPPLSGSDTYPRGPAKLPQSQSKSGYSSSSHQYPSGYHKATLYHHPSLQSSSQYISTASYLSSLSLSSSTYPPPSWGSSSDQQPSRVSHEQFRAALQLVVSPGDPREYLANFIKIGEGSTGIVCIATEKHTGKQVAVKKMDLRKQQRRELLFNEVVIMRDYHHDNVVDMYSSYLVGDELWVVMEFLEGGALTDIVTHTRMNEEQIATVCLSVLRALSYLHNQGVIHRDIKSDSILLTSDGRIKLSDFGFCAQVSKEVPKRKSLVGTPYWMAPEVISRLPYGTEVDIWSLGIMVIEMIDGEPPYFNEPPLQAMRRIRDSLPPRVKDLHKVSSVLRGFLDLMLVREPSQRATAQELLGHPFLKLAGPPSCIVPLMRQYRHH
Summary of the method: as §1

IKK-epsilon = target: T5, IKK-epsilon (Homo sapiens, UniProt Q14164); experiment: biochemical; set-up: KINOMEscan active site-directed competition binding assay (DiscoveRx), 456 kinases, per cent of control at 300 nM; details: read-out: Percent of Control (%)
T5 construct: gene IKBKE
T5 sequence (Q14164 whole entry): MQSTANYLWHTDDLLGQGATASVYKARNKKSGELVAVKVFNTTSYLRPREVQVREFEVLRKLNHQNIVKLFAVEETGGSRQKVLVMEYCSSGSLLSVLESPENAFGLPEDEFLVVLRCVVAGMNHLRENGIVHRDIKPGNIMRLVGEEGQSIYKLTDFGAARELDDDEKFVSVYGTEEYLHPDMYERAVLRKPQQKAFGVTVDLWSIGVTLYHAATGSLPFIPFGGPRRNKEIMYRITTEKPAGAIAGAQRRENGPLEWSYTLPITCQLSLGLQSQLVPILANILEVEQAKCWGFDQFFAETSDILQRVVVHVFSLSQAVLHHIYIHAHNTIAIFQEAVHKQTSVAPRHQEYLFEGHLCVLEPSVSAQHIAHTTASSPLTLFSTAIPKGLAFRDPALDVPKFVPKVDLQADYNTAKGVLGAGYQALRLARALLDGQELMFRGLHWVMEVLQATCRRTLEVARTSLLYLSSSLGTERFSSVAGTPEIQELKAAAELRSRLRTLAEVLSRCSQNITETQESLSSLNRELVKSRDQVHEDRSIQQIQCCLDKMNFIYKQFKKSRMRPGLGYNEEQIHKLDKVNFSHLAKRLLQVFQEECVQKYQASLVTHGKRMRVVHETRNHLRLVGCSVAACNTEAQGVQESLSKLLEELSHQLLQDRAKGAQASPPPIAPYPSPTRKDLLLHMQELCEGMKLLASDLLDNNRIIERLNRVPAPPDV
Summary of the method: as §1

RIPK2 = RIPK2 (Homo sapiens, UniProt O43353); experiment: biochemical; set-up: KINOMEscan active site-directed competition binding assay (DiscoveRx), 456 kinases, per cent of control at 300 nM; details: read-out: Percent of Control (%)
RIPK2, sequence (O43353 whole entry): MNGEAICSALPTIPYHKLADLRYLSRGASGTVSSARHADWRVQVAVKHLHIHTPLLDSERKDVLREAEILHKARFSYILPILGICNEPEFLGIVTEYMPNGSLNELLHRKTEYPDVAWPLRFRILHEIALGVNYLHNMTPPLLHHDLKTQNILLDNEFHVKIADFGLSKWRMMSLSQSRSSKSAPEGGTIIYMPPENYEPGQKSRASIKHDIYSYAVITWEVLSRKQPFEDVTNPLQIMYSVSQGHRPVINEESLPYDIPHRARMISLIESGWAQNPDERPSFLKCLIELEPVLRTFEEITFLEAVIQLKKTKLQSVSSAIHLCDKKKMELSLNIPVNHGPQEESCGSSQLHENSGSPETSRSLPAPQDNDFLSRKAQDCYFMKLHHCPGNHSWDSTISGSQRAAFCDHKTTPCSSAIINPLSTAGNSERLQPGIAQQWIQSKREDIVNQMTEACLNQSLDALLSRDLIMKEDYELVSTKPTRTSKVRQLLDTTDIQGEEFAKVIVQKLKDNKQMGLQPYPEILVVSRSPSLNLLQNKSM
Summary of the method: as §1

DYRK1A = DYRK1A (Homo sapiens, UniProt Q13627); experiment: biochemical; set-up: KINOMEscan active site-directed competition binding assay (DiscoveRx), 456 kinases, per cent of control at 300 nM; details: read-out: Percent of Control (%)
Summary of the method: as §1

SRPK2 = SRPK2 (Homo sapiens, UniProt P78362); experiment: biochemical; set-up: KINOMEscan active site-directed competition binding assay (DiscoveRx), 456 kinases, per cent of control at 300 nM; details: read-out: Percent of Control (%)
Summary of the method: as §1

CDC2L5 = target: T6, CDC2L5 (Homo sapiens, UniProt Q14004); experiment: biochemical; set-up: KINOMEscan active site-directed competition binding assay (DiscoveRx), 456 kinases, per cent of control at 300 nM; details: read-out: Percent of Control (%)
T6 construct: gene CDK13
Summary of the method: as §1

MEK3 = target: T7, MEK3 (Homo sapiens, UniProt P46734); experiment: biochemical; set-up: KINOMEscan active site-directed competition binding assay (DiscoveRx), 456 kinases, per cent of control at 300 nM; details: read-out: Percent of Control (%)
T7 construct: gene MAP2K3
Summary of the method: as §1

CSF1R = CSF1R (Homo sapiens, UniProt P07333); experiment: biochemical; set-up: KINOMEscan active site-directed competition binding assay (DiscoveRx), 456 kinases, per cent of control at 300 nM; details: read-out: Percent of Control (%)
CSF1R, sequence (P07333 whole entry): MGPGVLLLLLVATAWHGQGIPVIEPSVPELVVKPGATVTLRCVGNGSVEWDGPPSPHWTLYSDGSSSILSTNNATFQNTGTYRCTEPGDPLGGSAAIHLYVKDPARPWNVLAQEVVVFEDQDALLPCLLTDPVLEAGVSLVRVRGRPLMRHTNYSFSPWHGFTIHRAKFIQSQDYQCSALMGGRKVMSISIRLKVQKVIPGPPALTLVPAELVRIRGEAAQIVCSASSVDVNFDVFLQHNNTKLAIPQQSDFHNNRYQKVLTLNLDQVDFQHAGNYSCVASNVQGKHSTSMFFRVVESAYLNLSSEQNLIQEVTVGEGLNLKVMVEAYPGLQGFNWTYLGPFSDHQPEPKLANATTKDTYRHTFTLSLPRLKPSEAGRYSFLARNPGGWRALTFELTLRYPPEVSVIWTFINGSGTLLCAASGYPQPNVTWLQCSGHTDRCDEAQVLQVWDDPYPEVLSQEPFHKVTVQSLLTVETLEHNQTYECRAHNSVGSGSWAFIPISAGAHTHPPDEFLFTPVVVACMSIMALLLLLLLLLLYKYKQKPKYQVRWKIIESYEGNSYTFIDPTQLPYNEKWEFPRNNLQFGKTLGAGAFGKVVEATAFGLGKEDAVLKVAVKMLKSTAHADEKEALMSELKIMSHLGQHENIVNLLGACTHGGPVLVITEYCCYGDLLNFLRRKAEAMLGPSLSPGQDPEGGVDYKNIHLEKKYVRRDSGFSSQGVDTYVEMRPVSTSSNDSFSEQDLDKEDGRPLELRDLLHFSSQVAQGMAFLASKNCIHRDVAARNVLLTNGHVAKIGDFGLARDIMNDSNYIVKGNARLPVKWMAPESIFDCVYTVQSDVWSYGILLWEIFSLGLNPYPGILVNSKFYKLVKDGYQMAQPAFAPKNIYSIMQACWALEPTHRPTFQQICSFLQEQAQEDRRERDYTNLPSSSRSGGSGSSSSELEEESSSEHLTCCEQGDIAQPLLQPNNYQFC
Summary of the method: as §1

PFTK1 = target: T8, PFTK1 (Homo sapiens, UniProt O94921); experiment: biochemical; set-up: KINOMEscan active site-directed competition binding assay (DiscoveRx), 456 kinases, per cent of control at 300 nM; details: read-out: Percent of Control (%)
T8 construct: gene CDK14
Summary of the method: as §1

CAMK1 = CAMK1 (Homo sapiens, UniProt Q14012); experiment: biochemical; set-up: KINOMEscan active site-directed competition binding assay (DiscoveRx), 456 kinases, per cent of control at 300 nM; details: read-out: Percent of Control (%)
CAMK1, sequence (Q14012 whole entry): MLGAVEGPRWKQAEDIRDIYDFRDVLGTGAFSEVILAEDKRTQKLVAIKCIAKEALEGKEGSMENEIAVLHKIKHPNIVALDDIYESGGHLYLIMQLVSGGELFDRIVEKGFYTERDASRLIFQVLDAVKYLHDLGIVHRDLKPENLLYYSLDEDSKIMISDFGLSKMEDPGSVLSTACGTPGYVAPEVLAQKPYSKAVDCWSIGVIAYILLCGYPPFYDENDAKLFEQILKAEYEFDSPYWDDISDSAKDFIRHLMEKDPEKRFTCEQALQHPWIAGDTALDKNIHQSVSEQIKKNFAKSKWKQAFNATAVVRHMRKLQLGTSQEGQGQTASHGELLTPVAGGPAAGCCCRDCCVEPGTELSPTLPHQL
Summary of the method: as §1

ERBB4 = ERBB4 (Homo sapiens, UniProt Q15303); experiment: biochemical; set-up: KINOMEscan active site-directed competition binding assay (DiscoveRx), 456 kinases, per cent of control at 300 nM; details: read-out: Percent of Control (%)
Summary of the method: as §1

PIK3CA(C420R) = PIK3CA(C420R) (Homo sapiens, UniProt P42336, C420R); experiment: biochemical; set-up: KINOMEscan active site-directed competition binding assay (DiscoveRx), 456 kinases, per cent of control at 300 nM; details: read-out: Percent of Control (%)
Summary of the method: as §1

QSK = target: T9, QSK (Homo sapiens, UniProt Q9Y2K2); experiment: biochemical; set-up: KINOMEscan active site-directed competition binding assay (DiscoveRx), 456 kinases, per cent of control at 300 nM; details: read-out: Percent of Control (%)
T9 construct: gene SIK3
Summary of the method: as §1

SIK2 = SIK2 (Homo sapiens, UniProt Q9H0K1); experiment: biochemical; set-up: KINOMEscan active site-directed competition binding assay (DiscoveRx), 456 kinases, per cent of control at 300 nM; details: read-out: Percent of Control (%)
SIK2, sequence (Q9H0K1 whole entry): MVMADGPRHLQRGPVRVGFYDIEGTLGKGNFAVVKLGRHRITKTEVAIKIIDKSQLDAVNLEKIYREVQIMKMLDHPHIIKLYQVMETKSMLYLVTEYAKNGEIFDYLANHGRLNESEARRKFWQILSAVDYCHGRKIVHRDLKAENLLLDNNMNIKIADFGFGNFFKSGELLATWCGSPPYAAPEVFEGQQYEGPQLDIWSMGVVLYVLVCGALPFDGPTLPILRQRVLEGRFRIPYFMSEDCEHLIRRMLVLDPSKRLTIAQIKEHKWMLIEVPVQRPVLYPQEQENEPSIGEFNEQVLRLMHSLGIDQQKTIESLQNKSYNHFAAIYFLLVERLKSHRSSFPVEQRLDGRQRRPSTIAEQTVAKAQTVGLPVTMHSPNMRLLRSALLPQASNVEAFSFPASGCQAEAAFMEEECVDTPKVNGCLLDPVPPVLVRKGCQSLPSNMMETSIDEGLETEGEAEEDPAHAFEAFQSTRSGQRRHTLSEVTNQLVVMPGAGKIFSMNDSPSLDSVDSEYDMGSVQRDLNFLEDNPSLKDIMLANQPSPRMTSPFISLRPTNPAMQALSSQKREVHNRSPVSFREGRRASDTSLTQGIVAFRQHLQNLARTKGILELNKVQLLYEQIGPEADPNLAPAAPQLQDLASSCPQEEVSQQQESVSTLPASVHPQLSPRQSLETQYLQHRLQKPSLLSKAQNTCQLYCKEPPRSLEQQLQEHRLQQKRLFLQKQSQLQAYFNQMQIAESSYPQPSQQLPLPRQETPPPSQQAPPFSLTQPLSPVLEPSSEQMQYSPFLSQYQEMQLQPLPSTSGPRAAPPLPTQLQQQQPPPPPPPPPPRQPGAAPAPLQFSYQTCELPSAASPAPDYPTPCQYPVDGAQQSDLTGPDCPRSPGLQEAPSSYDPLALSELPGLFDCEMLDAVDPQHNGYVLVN
Summary of the method: as §1

KIT = KIT (Homo sapiens, UniProt P10721); experiment: biochemical; set-up: KINOMEscan active site-directed competition binding assay (DiscoveRx), 456 kinases, per cent of control at 300 nM; details: read-out: Percent of Control (%)
Summary of the method: as §1

HASPIN = HASPIN (Homo sapiens, UniProt Q8TF76); experiment: KINOMEscan competition binding at a single concentration ([…]); details: read-out: % inhibition at 300 nM

MKNK1, sequence (Q9BUB5 whole entry): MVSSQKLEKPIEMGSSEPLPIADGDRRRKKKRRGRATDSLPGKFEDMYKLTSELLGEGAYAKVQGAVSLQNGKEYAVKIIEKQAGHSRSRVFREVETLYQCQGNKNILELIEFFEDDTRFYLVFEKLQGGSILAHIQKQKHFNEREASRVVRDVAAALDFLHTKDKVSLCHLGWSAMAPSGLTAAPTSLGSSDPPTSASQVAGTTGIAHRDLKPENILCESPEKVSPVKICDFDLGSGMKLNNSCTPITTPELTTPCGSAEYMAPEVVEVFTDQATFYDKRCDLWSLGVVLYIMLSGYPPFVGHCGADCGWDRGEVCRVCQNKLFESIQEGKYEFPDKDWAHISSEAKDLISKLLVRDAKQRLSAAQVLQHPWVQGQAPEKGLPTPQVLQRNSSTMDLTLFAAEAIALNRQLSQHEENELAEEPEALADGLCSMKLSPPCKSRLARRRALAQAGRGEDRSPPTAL

Which remaining binding at 0.3 µM (MKNK1; sheet T-418) does the source give for `O=C(/C=C/c1cnccc1-c1ccc(F)cc1)Nc1ccc(CCc2nnco2)cc1` [T-418, (2E)-3-(4-(4-fluorophenyl)pyridin-3-yl)-N-(4-(2-(1,3,4-oxadiazol-2-yl)ethyl)phenyl)acrylamide] here?
The remaining binding at 0.3 µM was 44%.

What about the remaining binding at 0.3 µM ([1]; sheet T-418) of the same compound?
The remaining binding at 0.3 µM was 84%.

What about the remaining binding at 0.3 µM (YANK3; sheet T-418) of the same compound?
Its remaining binding at 0.3 µM is 100%.

And the remaining binding at 0.3 µM (ANKK1; sheet T-418)?
Its remaining binding at 0.3 µM is 89%.

And the remaining binding at 0.3 µM (PAK3; sheet T-418)?
Its remaining binding at 0.3 µM is 93%.

And the remaining binding at 0.3 µM ([2]; sheet T-418)?
The remaining binding at 0.3 µM was 69%.

What about the remaining binding at 0.3 µM (PAK7; sheet T-418) of the same compound?
The remaining binding at 0.3 µM was 100%.

What about the remaining binding at 0.3 µM (IKK-epsilon; sheet T-418) of the same compound?
The remaining binding at 0.3 µM was 100%.

What about the remaining binding at 0.3 µM (RIPK2; sheet T-418) of the same compound?
The remaining binding at 0.3 µM was 100%.

What about the remaining binding at 0.3 µM (DYRK1A; sheet T-418) of the same compound?
The remaining binding at 0.3 µM was 100%.

And the remaining binding at 0.3 µM (SRPK2; sheet T-418)?
The remaining binding at 0.3 µM was 50%.

What about the remaining binding at 0.3 µM (CDC2L5; sheet T-418) of the same compound?
The remaining binding at 0.3 µM was 87%.

And the remaining binding at 0.3 µM (MEK3; sheet T-418)?
Its remaining binding at 0.3 µM is 100%.

And the remaining binding at 0.3 µM (CSF1R; sheet T-418)?
The remaining binding at 0.3 µM was 81%.

And the remaining binding at 0.3 µM (PFTK1; sheet T-418)?
Its remaining binding at 0.3 µM is 87%.

What about the remaining binding at 0.3 µM (CAMK1; sheet T-418) of the same compound?
Its remaining binding at 0.3 µM is 70%.

And the remaining binding at 0.3 µM (ERBB4; sheet T-418)?
The remaining binding at 0.3 µM was 89%.

And the remaining binding at 0.3 µM (PIK3CA(C420R); sheet T-418)?
Its remaining binding at 0.3 µM is 86%.

What about the remaining binding at 0.3 µM (QSK; sheet T-418) of the same compound?
Its remaining binding at 0.3 µM is 95%.

And the remaining binding at 0.3 µM (SIK2; sheet T-418)?
Its remaining binding at 0.3 µM is 100%.

What about the remaining binding at 0.3 µM (KIT; sheet T-418) of the same compound?
Its remaining binding at 0.3 µM is 100%.

Which remaining binding at 0.3 µM (MKNK1) does the source give for `Cc1ncccc1Oc1sc(C(N)=O)c2c1-c1c(cnn1C)CC2` [T-474, 1-methyl-8-((2-methylpyridin-3-yl)oxy)-4,5-dihydro-1H-thieno[3,4-g]indazole-6-carboxamide] here?
The remaining binding at 0.3 µM was 50%.

What about the remaining binding at 0.3 µM [1] of the same compound?
The remaining binding at 0.3 µM was 89%.

And the remaining binding at 0.3 µM (YANK3)?
Its remaining binding at 0.3 µM is 100%.

What about the remaining binding at 0.3 µM (ANKK1) of the same compound?
Its remaining binding at 0.3 µM is 100%.

What about the remaining binding at 0.3 µM (PAK3) of the same compound?
The remaining binding at 0.3 µM was 100%.

And the remaining binding at 0.3 µM [2]?
Its remaining binding at 0.3 µM is 73%.

What about the remaining binding at 0.3 µM (PAK7) of the same compound?
The remaining binding at 0.3 µM was 100%.

What about the remaining binding at 0.3 µM (IKK-epsilon) of the same compound?
Its remaining binding at 0.3 µM is 100%.

And the remaining binding at 0.3 µM (RIPK2)?
The remaining binding at 0.3 µM was 100%.

What about the remaining binding at 0.3 µM (DYRK1A) of the same compound?
The remaining binding at 0.3 µM was 66%.

And the remaining binding at 0.3 µM (SRPK2)?
Its remaining binding at 0.3 µM is 100%.

And the remaining binding at 0.3 µM (CDC2L5)?
The remaining binding at 0.3 µM was 86%.

And the remaining binding at 0.3 µM (MEK3)?
Its remaining binding at 0.3 µM is 100%.

What about the remaining binding at 0.3 µM (CSF1R) of the same compound?
Its remaining binding at 0.3 µM is 100%.

And the remaining binding at 0.3 µM (PFTK1)?
Its remaining binding at 0.3 µM is 100%.

What about the remaining binding at 0.3 µM (CAMK1) of the same compound?
The remaining binding at 0.3 µM was 66%.

What about the remaining binding at 0.3 µM (ERBB4) of the same compound?
The remaining binding at 0.3 µM was 100%.

What about the remaining binding at 0.3 µM (PIK3CA(C420R)) of the same compound?
The remaining binding at 0.3 µM was 95%.

What about the remaining binding at 0.3 µM (QSK) of the same compound?
Its remaining binding at 0.3 µM is 93%.

And the remaining binding at 0.3 µM (SIK2)?
The remaining binding at 0.3 µM was 100%.

And the remaining binding at 0.3 µM (KIT)?
Its remaining binding at 0.3 µM is 100%.

What about the inhibition at 0.3 µM (HASPIN) of the same compound?
Its inhibition at 0.3 µM is 99%.
